The first experiment has as its system purified human Hsp90. Nature of the experiment: Binding Assay: fluorescence polarization with BODIPY-labeled geldanamycin. The note with it: 5 μM compound, BODIPY-GM 10 nM, Hsp90 30 nM. Summed up: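 Fluorescence polarization competition with BODIPY-geldanamycin (10 nM final) and human Hsp90 (30 nM final) in HEPES-KOH pH 7.3 buffer with molybdate, NP-40, DTT; 2% DMSO, overnight at room temperature. Read 485/530 nm; percent inhibition from mP normalized to DMSO controls, fluorescent-compound points excluded.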
On the technique in general: Polarisation of emitted light reports the rotation of a fluorescent probe.
In the case of `Nc1ncnc2c1nc(Sc1cc(OC(F)(F)F)ccc1OC1CCCC1)n2CCc1ccccc1Cl` [Example 329, 9-[2-(2-Chlorophenyl)ethyl]-8-{[2-(cyclopentyloxy)-5-(trifluoromethoxy)phenyl]thio}-9H-purin-6-amine], the “% Inhibition at 5 μM Compound Concentration” value (“% Inhibition” for short) is given as 25.0%.

Consider `Cc1ncsc1CCn1cnc(N)c2nc(Sc3cc4c(cc3Br)OCO4)nc1-2` [Example 331, 8-[(6-Bromo-1,3-benzodioxol-5-yl)thio]-3-[2-(4-methyl-1,3-thiazol-5-yl)ethyl]-3H-purin-6-amine], for which the “% Inhibition” value came to 25.0%. Same read-out and setting: as for `CC(C)(NCCn1cnc(N)c2nc(Sc3cc4c(cc3Br)OCO4)nc1-2)c1ccccn1` [Example 333, 8-[(6-Bromo-1,3-benzodioxol-5-yl)thio]-3-{2-[(1-methyl-1-pyridin-2-ylethyl)amino]ethyl}-3H-purin-6-amine], the figure is 43.0%; as for `COc1ccc(OC)c(Sc2nc3c(N)ncn(CCn4ccnc4)c-3n2)c1` [Example 336, 8-[(2,5-Dimethoxyphenyl)thio]-3-[2-(1H-imidazol-1-yl)ethyl]-3H-purin-6-amine], 13.0%.

As to `CCOC(=O)N1CCCCC1CCn1cnc(N)c2nc(Sc3cc(OC)ccc3OC)nc1-2` (stereo not shown) [Example 338, 2-{2-[6-amino-8-(2,5-dimethoxy-phenylsulfanyl)-purin-3-yl]-ethyl}-piperidine-1-carboxylic acid ethyl ester], the “% Inhibition” value is on record as 0%. Turning to `CCOC(=O)N1CCCCC1CCn1cnc(N)c2nc(Sc3cc4c(cc3Br)OCO4)nc1-2` (stereo not shown) [Example 340, Ethyl 2-(2-{6-amino-8-[(6-bromo-1,3-benzodioxol-5-yl)thio]-3H-purin-3-carboxylate], the “% Inhibition” value is reported as 23%. The same measure, in the same setting: the value for `COc1ccc(OC)c(Sc2nc3c(N)ncn(CCC4CCN(C(=O)OC(C)(C)C)CC4)c-3n2)c1` [Example 343, tert-Butyl 4-(2-{6-amino-8-[(2,5-dimethoxyphenyl)thio]-3H-purin-3-yl}ethyl)piperidine-1-carboxylate] was 0%; that for `CC(C)(C)OC(=O)N1CCC(CCn2cnc(N)c3nc(Sc4cc5c(cc4Br)OCO5)nc2-3)CC1` [Example 344, tert-Butyl 4-(2-{6-amino-8-[(6-bromo-1,3-benzodioxol-5-yl)thio]-3H-purin-3-yl}ethyl)piperidine-1-carboxylate] was 22%; that for `CC(C)(C)OC(=O)N1CCCC(CCn2cnc(N)c3nc(Sc4cc5c(cc4Br)OCO5)nc2-3)C1` (stereo not shown) [Example 345, tert-Butyl 3-(2-{6-amino-8-[(6-bromo-1,3-benzodioxol-5-yl)thio]-3H-purin-3-yl}ethyl)piperidine-1-carboxylate] was 3%.

On to `COc1ccc(OC)c(Sc2nc3c(N)ncn(CCC4CCOCC4)c-3n2)c1` [Example 349, 8-[(2,5-Dimethoxyphenyl)thio]-3-[2-(tetrahydro-2H-pyran-4-yl)ethyl]-3H-purin-6-amine], for which the “% Inhibition” value came to 12%.

For the molecule `Nc1ncn(CCC2CCOCC2)c2nc(Sc3cc4c(cc3Br)OCO4)nc1-2` [Example 350, 8-[(6-Bromo-1,3-benzodioxol-5-yl)thio]-3-[2-(tetrahydro-2H-pyran-4-yl)ethyl]-3H-purin-6-amine], the “% Inhibition” value is given as 25%.

As to `CC1(C)CC(CCn2cnc(N)c3nc(Sc4cc5c(cc4Br)OCO5)nc2-3)CC(C)(C)N1` [Example 351, 8-[(6-Bromo-1,3-benzodioxol-5-yl)thio]-3-[2-(2,2,6,6-tetramethylpiperidin-4-yl)ethyl]-3H-purin-6-amine], the “% Inhibition” value is on record as 8%.

Take `CN1CCCC1CCn1cnc(N)c2nc(Sc3cc4c(cc3Br)OCO4)nc1-2` (stereo not shown) [Example 352, 8-[(6-Bromo-1,3-benzodioxol-5-yl)thio]-3-[2-(1-methylpyrrolidin-2-yl)ethyl]-3H-purin-6-amine]: the “% Inhibition” value turned out to be 35%.

Consider `Nc1ncn(CCC23CC4CC(CC(C4)C2)C3)c2nc(Sc3cc4c(cc3Br)OCO4)nc1-2` [Example 357, 3-[2-(1-Adamantyl)ethyl]-8-[(6-bromo-1,3-benzodioxol-5-yl)thio]-3H-purin-6-amine], for which the “% Inhibition” value stood at 0%. For `COc1ccc(OC)c(Sc2nc3c(N)ncn(CCC4CCN(C=O)CC4)c-3n2)c1` [Example 359, 4-(2-{6-Amino-8-[(2,5-dimethoxyphenyl)thio]-3H-purin-3-yl}ethyl)piperidine-1-carbaldehyde], the “% Inhibition” value came to 3%. Same read-out and setting: the value for `COc1ccc(OC)c(Sc2nc3c(N)ncn(CCC4CC(C)(C)NC(C)(C)C4)c-3n2)c1` [Example 360, 8-[(2,5-Dimethoxyphenyl)thio]-3-[2-(2,2,6,6-tetramethylpiperidin-4-yl)ethyl]-3H-purin-6-amine] was 5%.

The experiment is the same for the next values; noted with them: BODIPY-GM 10 nM, Hsp90 30 nM.
`Nc1ncnc2c1nc(Sc1cc(OC(F)(F)F)ccc1OC1CCCC1)n2CCc1ccccc1` [Example 328, 8-{[2-(Cyclopentyloxy)-5-(trifluoromethoxy)phenyl]thio}-9-(2-phenylethyl)-9H-purin-6-amine] returned an IC50 greater than 8000 nM. Same read-out and setting: the value for `Cc1ncsc1CCn1c(Sc2cc3c(cc2Br)OCO3)nc2c(N)ncnc21` [Example 330, 8-[(6-Bromo-1,3-benzodioxol-5-yl)thio]-9-[2-(4-methyl-1,3-thiazol-5-yl)ethyl]-9H-purin-6-amine] was 70 nM; that for `COc1ccc(OC)c(Sc2nc3c(N)ncnc3n2CCNC(C)(C)c2ccccn2)c1` [Example 334, 8-[(2,5-Dimethoxyphenyl)thio]-9-{2-[(1-methyl-1-pyridin-2-ylethyl)amino]ethyl}-9H-purin-6-amine] was 2300 nM; that for `COc1ccc(OC)c(Sc2nc3c(N)ncnc3n2CCn2ccnc2)c1` [Example 335, 8-[(2,5-Dimethoxyphenyl)thio]-9-[2-(1H-imidazol-1-yl)ethyl]-9H-purin-6-amine] was 3000 nM.

`CCOC(=O)N1CCCCC1CCn1c(Sc2cc(OC)ccc2OC)nc2c(N)ncnc21` (stereo not shown) [Example 337, 2-{2-[6-Amino-8-(2,5-dimethoxy-phenylsulfanyl)-purin-9-yl]-ethyl}-piperidine-1-carboxylic acid ethyl ester]: the 50% inhibitory concentration (IC50) is greater than 8000 nM. The same measure, in the same setting: as for `CCOC(=O)N1CCCCC1CCn1c(Sc2cc3c(cc2Br)OCO3)nc2c(N)ncnc21` (stereo not shown) [Example 339, Ethyl 2-(2-{6-amino-8-[(6-bromo-1,3-benzodioxol-5-yl)thio]-9H-purin-9-yl}ethyl)piperidine-1-carboxylate], the figure is 115 nM. The molecule `CC(C)(C)OC(=O)N1CCC(CCn2c(Sc3cc4c(cc3Br)OCO4)nc3c(N)ncnc32)CC1` [Example 341, tert-Butyl 4-(2-{6-amino-8-[(6-bromo-1,3-benzodioxol-5-yl)thio]-9H-purin-9-yl}ethyl)piperidine-1-carboxylate] had an IC50 of 200 nM. For `COc1ccc(OC)c(Sc2nc3c(N)ncnc3n2CCC2CCN(C(=O)OC(C)(C)C)CC2)c1` [Example 342, tert-Butyl 4-(2-{6-amino-8-[(2,5-dimethoxyphenyl)thio]-9H-purin-9-yl}ethyl)piperidine-1-carboxylate], the IC50 stood at 19000 nM.

The molecule `CC(C)(C)OC(=O)N1CCCC(CCn2c(Sc3cc4c(cc3Br)OCO4)nc3c(N)ncnc32)C1` (stereo not shown) [Example 346, tert-Butyl 3-(2-{6-amino-8-[(6-bromo-1,3-benzodioxol-5-yl)thio]-9H-purin-9-yl}ethyl)piperidine-1-carboxylate] registered an IC50 of 325 nM. This IC50 lies about 58-fold lower than the previous one. The molecule `COc1ccc(OC)c(Sc2nc3c(N)ncnc3n2CCC2CCCN(C(=O)OC(C)(C)C)C2)c1` (stereo not shown) [Example 347, tert-Butyl 3-(2-{6-amino-8-[(2,5-dimethoxyphenyl)thio]-9H-purin-9-yl}ethyl)piperidine-1-carboxylate] showed an IC50 of 2500 nM. Molecule `COc1ccc(OC)c(Sc2nc3c(N)ncnc3n2CCC2CCOCC2)c1` [Example 348, 8-[(2,5-Dimethoxyphenyl)thio]-9-[2-(tetrahydro-2H-pyran-4-yl)ethyl]-9H-purin-6-amine] came in with an IC50 of 800 nM.

Molecule `Nc1ncnc2c1nc(Sc1cc3c(cc1Br)OCO3)n2CCC1CCOCC1` [Example 353, 8-[(6-Bromo-1,3-benzodioxol-5-yl)thio]-9-[2-(tetrahydro-2H-pyran-4-yl)ethyl]-9H-purin-6-amine] had an IC50 of 57 nM. Still for that read-out and setting: as for `CC1(C)CC(CCn2c(Sc3cc4c(cc3Br)OCO4)nc3c(N)ncnc32)CC(C)(C)N1` [Example 354, 8-[(6-Bromo-1,3-benzodioxol-5-yl)thio]-9-[2-(2,2,6,6-tetramethylpiperidin-4-yl)ethyl]-9H-purin-6-amine], the figure is 250 nM; as for `CN1CCCC1CCn1c(Sc2cc3c(cc2Br)OCO3)nc2c(N)ncnc21` (stereo not shown) [Example 355, 8-[(6-Bromo-1,3-benzodioxol-5-yl)thio]-9-[2-(1-methylpyrrolidin-2-yl)ethyl]-9H-purin-6-amine], greater than 25000 nM; as for `Nc1ncnc2c1nc(Sc1cc3c(cc1Br)OCO3)n2CCC12CC3CC(CC(C3)C1)C2` [Example 356, 9-[2-(1-Adamantyl)ethyl]-8-[(6-bromo-1,3-benzodioxol-5-yl)thio]-9H-purin-6-amine], greater than 25000 nM. Still for that read-out and setting: the value for `COc1ccc(OC)c(Sc2nc3c(N)ncnc3n2CCC2CCN(C=O)CC2)c1` [Example 358, 4-(2-{6-Amino-8-[(2,5-dimethoxyphenyl)thio]-9H-purin-9-yl}ethyl)piperidine-1-carbaldehyde] was 450 nM; that for `COc1ccc(OC)c(Sc2nc3c(N)ncnc3n2CCC2CC(C)(C)NC(C)(C)C2)c1` [Example 361, 8-[(2,5-Dimethoxyphenyl)thio]-9-[2-(2,2,6,6-tetramethylpiperidin-4-yl)ethyl]-9H-purin-6-amine] was 2900 nM. With `CCOc1ccc(OCC)c(Sc2nc3c(N)ncnc3n2CCC2CCN(C(=O)OC(C)(C)C)CC2)c1` [Example 362, tert-Butyl 4-(2-{6-amino-8-[(2,5-diethoxyphenyl)thio]-9H-purin-9-yl}ethyl)piperidine-1-carboxylate], the IC50 is greater than 25000 nM.

Usually % Inhibition stands for the relative decrease from the control value, in per cent. The low end stands for a weak effect, the high end for a strong effect. By IC50 is commonly meant the concentration that inhibits the measured activity by half. A high value points to lower potency.

These data come from patent publication US7595401B2, “Therapeutic compounds and their use in cancer” (Myriad Pharmaceuticals, Inc., priority 2006, dated 2009).
